Converted amounts (≈) assume the structure as drawn. Where only a bound is given, the exact number is not on record here.

Test [1] in a line: In vitro inhibitory concentration required against Mur B enzyme was determined. Also on record: species or system Staphylococcus aureus.
The test system of another test is Staphylococcus aureus. Description: Antibacterial activity against Staphylococcus aureus A9537. In kind it is functional.

`CCCC[C@@H](C(=O)O)n1c(-c2cccc(Oc3ccc(C(C)(C)C)cc3)c2)cnc1O` returned an IC50 in test [1] of more than 118 µM. `CCCC[C@@H](C(=O)O)N1C(=O)C(CC(=O)NCCc2ccccc2Cl)SC1c1cccc(Oc2ccc(C(C)(C)C)cc2)c1` (some centres not stated) registered an IC50 in test [1] of 12 µM. On to `C=CCn1cc(-c2cccc(Oc3ccc(C(C)(C)C)cc3)c2)n([C@@H](CCCC)C(=O)O)c1=O`, for which the MIC in the test on Staphylococcus aureus was 4 µg/mL (≈ 8.65 µM). In addition, the half-maximal inhibitory concentration (IC50) in test [1] was found to be 40 µM. Take `CCCC[C@@H](C(=O)O)n1c(-c2cccc(Oc3ccc(C(C)(C)C)cc3)c2)cn(C)c1=O`: in test [1], the IC50 is more than 115 µM. `CCCC[C@@H](C(=O)O)n1c(-c2cccc(Oc3ccc(C(C)(C)C)cc3)c2)cn(Cc2ccccc2)c1=O` returned a minimum inhibitory concentration (MIC) against Staphylococcus aureus of 2 µg/mL (≈ 3.9 µM). Besides, it took 16 µM to reach half-maximal inhibition in test [1] (IC50). As for `CCCC[C@@H](C(=O)OC)n1c(-c2cccc(Oc3ccc(C(C)(C)C)cc3)c2)cn(CC(=O)O)c1=O`, the half-maximal inhibitory concentration (IC50) in test [1] is more than 101 µM. The compound `CCCC[C@@H](C(=O)O)n1c(-c2cccc(Oc3ccc(C(C)(C)C)cc3)c2)cn(CC(=O)NCCc2ccccc2Cl)c1=O` had a minimal inhibitory concentration (MIC) against Staphylococcus aureus of 4 µg/mL (≈ 6.47 µM). Inhibition in test [1] was half-maximal at 25 µM (IC50).

In turn, `CCCC[C@@H](C(=O)O)n1c(-c2cccc(Oc3ccc(C(C)(C)C)cc3)c2)cn(CC(=O)NCc2ccc(Cl)c(Cl)c2)c1=O` returned an MIC in the test with Staphylococcus aureus of 4 µg/mL (≈ 6.26 µM). In test [1], this compound returned an IC50 of 15 µM.

By IC50 is commonly meant the concentration that gives 50% inhibition. A lower IC50 goes with greater potency in that assay. What is called MIC is the lowest concentration that inhibits growth of the organism. A lower MIC goes with inhibition by little substance.

For the origin of these results see ChEMBL document CHEMBL1136622, “Discovery of the first antibacterial small molecule inhibitors of MurB” (Bioorg Med Chem Lett, 2003).
